Experimental data published in US20240067657A1, “AMIDO-SUBSTITUTED PYRIDYL COMPOUNDS AND METHODS OF USE THEREOF FOR THE TREATMENT OF HERPESVIRUSES” (Merck Sharp & Dohme LLC, priority 2020, published 2024).
Where two headings read alike, the source gives them in different places.

Key:
[1] = target: T1, Human cytomegalovirus DNA polymerase (Human cytomegalovirus, UniProt P08546); experiment: HCMV polymerase assay (AlphaLISA, IC50); assay type: biochemical; details: polymerase assay of Example 190
T1 construct: made in house; host or cells: SF21 insect cells (baculovirus vector)
How it was run: (§1)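 Baculovirus-expressed polymerase (HCMV 0.2 nM, VZV 0.4 nM final) preincubated 30 min at room temperature with compound in pH 7.5 HEPES buffer; reaction started with 1.6 nM DIG-primer/template and nM dNTPs including biotin-dUTP, run 60 min at 37° C. Incorporation detected by AlphaLISA; IC50 from 4-parameter fit.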

[2] = target: T2, varicella zoster virus DNA polymerase (Varicella-zoster virus, UniProt P09252); experiment: VZV polymerase assay (AlphaLISA, IC50); assay type: biochemical; details: polymerase assay of Example 190
T2 construct: made in house; host or cells: SF21 insect cells (baculovirus vector)
How it was run: as §1

[3] = tested on: HCMV Strain AD169 in MRC-5 cells; experiment: Viral qPCR assay HCMV (V0/V1, V2/V3), EC50; assay type: cell-based; details: Human betaherpesvirus 5, AD169, MRC5, viral qPCR assay of Example 191; read-out: HCMV Cell (EC50)
How it was run: (§2)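 Infected cells added to compounds (10-point 3-fold series), ~72 h at 37 °C, then lysed; viral genomes by TaqMan qPCR against plasmid standard, normalized to PPIA in V0/V1 only, EC50 from 4-parameter fit. HCMV AD169, 0.05-0.1 pfu/cell, ± 50% FBS; VZV 0.04-0.1 pfu/cell; HSV-1 F 0.0005-0.004 pfu/cell.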

[4] = tested on: VZV in MeWo or MRC5 cells; experiment: Viral qPCR assay VZV (V0/V1, V2/V3), EC50; assay type: cell-based; details: 10%
How it was run: as §2

[5] = tested on: HSV-1 Strain F in Vero or MRC5 cells; experiment: Viral qPCR assay HSV-1 (V0/V1, V2/V3), EC50; assay type: cell-based; details: 10%
How it was run: as §2

[6] = Human alphaherpesvirus 3, MeWo, MEWO cells, read-out: VZV Cell (EC50) MEWO 10%
[7] = Human alphaherpesvirus 1, Vero, VERO cells, read-out: HSV1 Cell (EC50) VERO 10%
[8] = Human alphaherpesvirus 3, MRC5, MRC5 cells, read-out: VZV Cell (EC50) MRC5 10%
[9] = Human alphaherpesvirus 1, MRC5, MRC5 cells, read-out: HSV1 Cell (EC50) MRC5 10%

T2 sequence (P09252 whole entry): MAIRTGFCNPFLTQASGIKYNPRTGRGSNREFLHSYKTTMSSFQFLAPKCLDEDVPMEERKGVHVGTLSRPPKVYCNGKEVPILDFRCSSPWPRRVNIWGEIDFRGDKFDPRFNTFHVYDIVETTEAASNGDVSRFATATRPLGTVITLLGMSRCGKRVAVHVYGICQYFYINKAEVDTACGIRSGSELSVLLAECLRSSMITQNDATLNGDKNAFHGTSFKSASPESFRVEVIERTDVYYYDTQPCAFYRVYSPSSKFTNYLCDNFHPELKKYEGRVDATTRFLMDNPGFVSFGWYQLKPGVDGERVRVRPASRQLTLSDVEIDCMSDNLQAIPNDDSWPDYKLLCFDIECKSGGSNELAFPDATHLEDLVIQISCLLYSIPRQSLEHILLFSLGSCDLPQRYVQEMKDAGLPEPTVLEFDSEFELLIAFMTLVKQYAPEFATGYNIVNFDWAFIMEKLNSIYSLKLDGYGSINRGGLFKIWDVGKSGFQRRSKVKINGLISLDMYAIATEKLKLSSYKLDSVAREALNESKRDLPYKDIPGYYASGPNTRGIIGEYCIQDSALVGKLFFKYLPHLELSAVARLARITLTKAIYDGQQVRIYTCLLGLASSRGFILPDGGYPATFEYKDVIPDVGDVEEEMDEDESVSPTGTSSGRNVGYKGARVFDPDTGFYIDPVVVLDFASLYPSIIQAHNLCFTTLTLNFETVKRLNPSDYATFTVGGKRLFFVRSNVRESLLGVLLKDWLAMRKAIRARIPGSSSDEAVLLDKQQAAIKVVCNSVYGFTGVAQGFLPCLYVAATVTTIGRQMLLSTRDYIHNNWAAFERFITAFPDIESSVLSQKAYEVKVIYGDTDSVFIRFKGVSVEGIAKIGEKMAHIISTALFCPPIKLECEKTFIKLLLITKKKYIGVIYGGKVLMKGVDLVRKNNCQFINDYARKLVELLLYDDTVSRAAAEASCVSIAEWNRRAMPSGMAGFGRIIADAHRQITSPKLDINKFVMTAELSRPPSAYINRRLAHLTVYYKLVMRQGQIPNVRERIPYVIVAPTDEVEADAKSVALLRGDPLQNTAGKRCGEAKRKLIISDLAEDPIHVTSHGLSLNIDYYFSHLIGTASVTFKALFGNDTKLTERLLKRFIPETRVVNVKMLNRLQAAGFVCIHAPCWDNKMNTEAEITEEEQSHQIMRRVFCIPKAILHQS
T1 sequence (P08546 whole entry): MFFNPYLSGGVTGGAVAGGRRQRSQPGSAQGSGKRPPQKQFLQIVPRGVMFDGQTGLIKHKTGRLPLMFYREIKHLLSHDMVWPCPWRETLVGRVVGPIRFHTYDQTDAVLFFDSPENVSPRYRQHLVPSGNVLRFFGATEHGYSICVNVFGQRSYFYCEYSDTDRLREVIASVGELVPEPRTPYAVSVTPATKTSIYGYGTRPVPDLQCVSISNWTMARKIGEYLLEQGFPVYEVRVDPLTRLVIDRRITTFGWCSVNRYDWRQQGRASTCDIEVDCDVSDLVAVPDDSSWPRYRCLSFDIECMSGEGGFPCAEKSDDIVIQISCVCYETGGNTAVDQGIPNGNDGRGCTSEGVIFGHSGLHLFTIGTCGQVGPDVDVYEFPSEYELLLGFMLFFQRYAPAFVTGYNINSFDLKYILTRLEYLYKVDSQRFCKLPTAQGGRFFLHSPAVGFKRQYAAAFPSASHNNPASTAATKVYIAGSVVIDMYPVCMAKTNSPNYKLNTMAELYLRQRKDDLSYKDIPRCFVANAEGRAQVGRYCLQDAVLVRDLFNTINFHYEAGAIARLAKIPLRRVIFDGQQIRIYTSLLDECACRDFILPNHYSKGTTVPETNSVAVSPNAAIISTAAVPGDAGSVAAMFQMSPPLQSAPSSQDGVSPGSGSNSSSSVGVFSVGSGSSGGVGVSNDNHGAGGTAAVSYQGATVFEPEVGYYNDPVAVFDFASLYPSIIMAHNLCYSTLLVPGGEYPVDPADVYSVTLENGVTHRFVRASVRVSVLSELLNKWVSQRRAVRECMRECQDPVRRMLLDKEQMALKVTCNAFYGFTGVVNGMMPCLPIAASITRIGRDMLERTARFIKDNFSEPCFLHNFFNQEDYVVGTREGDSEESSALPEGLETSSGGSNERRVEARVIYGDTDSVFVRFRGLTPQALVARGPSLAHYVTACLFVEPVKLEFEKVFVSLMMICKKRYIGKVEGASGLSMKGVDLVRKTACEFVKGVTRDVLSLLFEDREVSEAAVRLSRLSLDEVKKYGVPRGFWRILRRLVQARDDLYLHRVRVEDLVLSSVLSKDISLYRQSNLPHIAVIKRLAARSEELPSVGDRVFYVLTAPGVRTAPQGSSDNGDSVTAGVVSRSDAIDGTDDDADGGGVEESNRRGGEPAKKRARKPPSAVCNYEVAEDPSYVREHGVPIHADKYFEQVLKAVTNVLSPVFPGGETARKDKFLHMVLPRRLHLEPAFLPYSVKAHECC

| Compound | IC50 [1] | IC50 [2] | EC50 [3] | EC50 [4, 6] | EC50 [5, 7] | EC50 [4, 8] | EC50 [5, 9] |
| --- | --- | --- | --- | --- | --- | --- | --- |
| O=C(NCc1ccc(F)c(F)c1F)c1cc(O[C@H]2CCN3C(=O)OC[C@@H]3C2)c(-c2cnn(C(F)F)c2)cn1 [Compound 87] | 86.3 nM | 38.8 nM | 626 nM | 441 nM | 378 nM |  |  |
| O=C(NCc1ccc(Cl)cn1)c1cc(O[C@H]2CCN3C(=O)OC[C@@H]3C2)c(-c2cnn(C(F)F)c2)cn1 [Compound 90] | 189 nM | 105 nM | 1040 nM | 737 nM | 853 nM | 5990 nM | 2550 nM |
| N#Cc1ccc(CNC(=O)c2cc(O[C@H]3CCN4C(=O)OC[C@@H]4C3)c(-c3cnn(C(F)F)c3)cn2)cc1 [Compound 91] | 32.5 nM | 17.4 nM | 239 nM | 265 nM | 239 nM |  |  |
| Cn1cc(-c2cnc(C(=O)NCc3ccc(C#N)c(F)c3)cc2O[C@H]2CCN3C(=O)OC[C@@H]3C2)cn1 [Compound 93] | 1.42 nM | 1.99 nM | 66.7 nM |  | 241 nM | 118 nM | 124 nM |
| Cn1cc(-c2cnc(C(=O)NCc3ccc(F)c(F)c3F)cc2O[C@H]2CCN3C(=O)OC[C@@H]3C2)cn1 [Compound 94] | 31.7 nM | 21.4 nM | 111 nM | 155 nM | 368 nM | 427 nM | 412 nM |
| Cn1cc(-c2cnc(C(=O)NCc3ccc(Cl)c(F)c3)cc2O[C@H]2CCN3C(=O)OC[C@@H]3C2)cn1 [Compound 96] | 5.46 nM | 3.36 nM | 86.3 nM | 53.6 nM | 118 nM | 132 nM | 71 nM |
| Cn1cc(-c2cnc(C(=O)NCc3ccc(Cl)cc3F)cc2O[C@H]2CCN3C(=O)OC[C@@H]3C2)cn1 [Compound 97] | 14 nM | 15.7 nM | 101 nM | 95.5 nM | 191 nM |  |  |
| Cc1cnn(-c2cnc(C(=O)NCc3ccc(Cl)cc3)cc2O[C@H]2CCN3C(=O)OC[C@@H]3C2)c1 [Compound 105] | 223 nM | 139 nM | 1300 nM | 870 nM | 655 nM |  |  |
| Cc1ccn(-c2cnc(C(=O)NCc3ccc(Cl)cc3)cc2O[C@H]2CCN3C(=O)OC[C@@H]3C2)n1 [Compound 106] | 224 nM | 197 nM | 923 nM | 288 nM | 575 nM |  |  |
| COC(C)(C)Cc1cnc(C(=O)NCc2ccc(Cl)cc2)cc1O[C@H]1CCN2C(=O)OC[C@@H]2C1 [Compound 107] | 24 nM | 3.07 nM | 549 nM |  |  | 582 nM | 473 nM |
| O=C(NCc1ccc(Cl)cc1)c1cc(O[C@H]2CCN3C(=O)OC[C@@H]3C2)c(C2CC(F)(F)C2)cn1 [Compound 108] | 45.1 nM | 26.4 nM | 844 nM |  |  | 1620 nM | 646 nM |
| COC1CC(c2cnc(C(=O)NCc3ccc(Cl)cc3)cc2O[C@H]2CCN3C(=O)OC[C@@H]3C2)C1 (some centres unmarked) [Compound 110] | 22 nM | 4.84 nM | 354 nM |  |  | 1520 nM | 998 nM |
| CC(C)(O)Cc1cnc(C(=O)NCc2ccc(Cl)cc2)cc1O[C@H]1CCN2C(=O)OC[C@@H]2C1 [Compound 111] | 13.6 nM | 13.8 nM | 396 nM |  | 719 nM | 1160 nM | 1120 nM |
| O=C(NCc1ccc(Cl)cc1)c1cc(O[C@H]2CCN3C(=O)OC[C@@H]3C2)c(CCO)cn1 [Compound 112] | 54.4 nM | 31.1 nM | 635 nM | 482 nM | 3260 nM |  |  |
| O=C(NCc1ccc(Cl)cc1)c1cc(O[C@H]2CCN3C(=O)OC[C@@H]3C2)c(CCn2cccn2)cn1 [Compound 115] | 173 nM | 132 nM | 1720 nM | 900 nM | 1280 nM |  |  |
